Several values for one entry are separate records, joined by “and”; a condition that tells them apart may be missing. Identical values can stand only once.
System: 327498-153-R-J2-PDC multicell spheroid viability
Test: Anticancer human tumor 327498-153-R-J2-PDC patient-derived uterine carcinosarcoma cell line growth inhibition [IpAb]
Details: for viability, T/C: stronger effect = lower value; active = viability on the fitted dose curve at most 10% of control; inactive = the rest
Summary of the method: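 Spheroids of 60% malignant cells, 25% HUVEC and 15% MSC were exposed to targeted agents combined with ipatasertib or abemaciclib. Doses started at or near clinical Cmax (10 microM when unknown) and fell in half-log steps.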

[1] = curve of first compound, second compound 0.1 µM
[2] = curve of first compound, second compound 0.316 µM
[3] = curve of first compound, second compound 1 µM
[4] = curve of first compound, second compound 3.16 µM
[5] = curve of first compound, second compound 10 µM
[6] = second compound 0.1 µM, first compound 0.0316 µM
[7] = second compound 0.1 µM, first compound 0.1 µM
[8] = second compound 0.1 µM, first compound 0.316 µM
[9] = second compound 0.1 µM, first compound 1 µM
[10] = second compound 0.1 µM, first compound 3.16 µM
[11] = second compound 0.1 µM, first compound 10 µM
[12] = second compound 0.316 µM, first compound 0.0316 µM
[13] = second compound 0.316 µM, first compound 0.1 µM
[14] = second compound 0.316 µM, first compound 0.316 µM
[15] = second compound 0.316 µM, first compound 1 µM
[16] = second compound 0.316 µM, first compound 3.16 µM
[17] = second compound 0.316 µM, first compound 10 µM
[18] = second compound 1 µM, first compound 0.0316 µM
[19] = second compound 1 µM, first compound 0.1 µM
[20] = second compound 1 µM, first compound 0.316 µM
[21] = second compound 1 µM, first compound 1 µM
[22] = second compound 1 µM, first compound 3.16 µM
[23] = second compound 1 µM, first compound 10 µM
[24] = second compound 3.16 µM, first compound 0.0316 µM
[25] = second compound 3.16 µM, first compound 0.1 µM
[26] = second compound 3.16 µM, first compound 0.316 µM
[27] = second compound 3.16 µM, first compound 1 µM
[28] = second compound 3.16 µM, first compound 3.16 µM
[29] = second compound 3.16 µM, first compound 10 µM
[30] = second compound 10 µM, first compound 0.0316 µM
[31] = second compound 10 µM, first compound 0.1 µM
[32] = second compound 10 µM, first compound 0.316 µM
[33] = second compound 10 µM, first compound 1 µM
[34] = second compound 10 µM, first compound 3.16 µM
[35] = second compound 10 µM, first compound 10 µM
[36] = second compound 0.1 µM, first compound 0.00949 µM
[37] = second compound 0.1 µM, first compound 0.03 µM
[38] = second compound 0.1 µM, first compound 0.0949 µM
[39] = second compound 0.1 µM, first compound 0.3 µM
[40] = second compound 0.316 µM, first compound 0.00949 µM
[41] = second compound 0.316 µM, first compound 0.03 µM
[42] = second compound 0.316 µM, first compound 0.0949 µM
[43] = second compound 0.316 µM, first compound 0.3 µM
[44] = second compound 1 µM, first compound 0.00949 µM
[45] = second compound 1 µM, first compound 0.03 µM
[46] = second compound 1 µM, first compound 0.0949 µM
[47] = second compound 1 µM, first compound 0.3 µM
[48] = second compound 3.16 µM, first compound 0.00949 µM
[49] = second compound 3.16 µM, first compound 0.03 µM
[50] = second compound 3.16 µM, first compound 0.0949 µM
[51] = second compound 3.16 µM, first compound 0.3 µM
[52] = second compound 10 µM, first compound 0.00949 µM
[53] = second compound 10 µM, first compound 0.03 µM
[54] = second compound 10 µM, first compound 0.0949 µM
[55] = second compound 10 µM, first compound 0.3 µM
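Throughout, for viability, T/C: 100% = DMSO vehicle control viability.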

Cc1nc(NC(=O)N2CCCC2C(N)=O)sc1-c1ccnc(C(C)(C)C(F)(F)F)c1 (configuration not stated) + CC(C)NCC(C(=O)N1CCN(c2ncnc3c2C(C)CC3O)CC1)c1ccc(Cl)cc1
inactive: viability, T/C [6] 91.1% | viability, T/C [7] 93.2% | viability, T/C [8] 83.3% | viability, T/C [9] 72.7% | viability, T/C [10] 63.8% | viability, T/C [11] 49.4% | viability, T/C [12] 72% | viability, T/C [13] 70.5% | viability, T/C [14] 67.8% | viability, T/C [15] 59.2% | viability, T/C [16] 57.8% | viability, T/C [17] 38.5% | viability, T/C [18] 56.4% | viability, T/C [19] 57.7% | viability, T/C [20] 59.2% | viability, T/C [21] 49.8% | viability, T/C [22] 42.5% | viability, T/C [23] 30.5% | viability, T/C [24] 54.3% | viability, T/C [25] 44.9% | viability, T/C [26] 36.2% | viability, T/C [27] 34.6% | viability, T/C [28] 33.7% | viability, T/C [29] 21.3% | viability, T/C [30] 38.7% | viability, T/C [31] 31.7% | viability, T/C [32] 26.6% | viability, T/C [33] 23.5% | viability, T/C [34] 25.5% | viability, T/C [35] 17.2%
1230 nM: IC50 [3]
9910 nM: IC50 [1]
49.9 nM: IC50 [4]
4450 nM: IC50 [2]
< 31.6 nM: IC50 [5]

CC(=O)c1c(C)c2cnc(Nc3ccc(N4CCNCC4)cn3)nc2n(C2CCCC2)c1=O + CC(C)NCC(C(=O)N1CCN(c2ncnc3c2C(C)CC3O)CC1)c1ccc(Cl)cc1
> 300 nM: IC50 [1]
inactive: viability, T/C (second compound 0.1 µM, first compound 0.000949 µM) 96.4% | viability, T/C (second compound 0.1 µM, first compound 0.003 µM) 101% | viability, T/C [36] 91.2% | viability, T/C [37] 68.8% | viability, T/C [38] 65.9% | viability, T/C [39] 55.4% | viability, T/C (second compound 0.316 µM, first compound 0.000949 µM) 81.6% | viability, T/C (second compound 0.316 µM, first compound 0.003 µM) 71.2% | viability, T/C [40] 68.2% | viability, T/C [41] 51.8% | viability, T/C [42] 44.1% | viability, T/C [43] 41.5% | viability, T/C (second compound 1 µM, first compound 0.000949 µM) 61.5% | viability, T/C (second compound 1 µM, first compound 0.003 µM) 57.5% | viability, T/C [44] 48% | viability, T/C [45] 34.1% | viability, T/C [46] 34.5% | viability, T/C [47] 31.3% | viability, T/C (second compound 3.16 µM, first compound 0.000949 µM) 51.7% | viability, T/C (second compound 3.16 µM, first compound 0.003 µM) 46.2% | viability, T/C [48] 35.2% | viability, T/C [49] 33.4% | viability, T/C [50] 25% | viability, T/C [51] 24.6% | viability, T/C (second compound 10 µM, first compound 0.000949 µM) 33.4% | viability, T/C (second compound 10 µM, first compound 0.003 µM) 36.7% | viability, T/C [52] 28.1% | viability, T/C [53] 20.9% | viability, T/C [54] 21.9% | viability, T/C [55] 21.9%
45.7 nM: IC50 [2]
7.23 nM: IC50 [3]
1.34 nM: IC50 [4]
< 0.949 nM: IC50 [5]

C=CC(=O)N1CCN(c2nc(=O)n(-c3c(C)ccnc3C(C)C)c3nc(-c4c(O)cccc4F)c(F)cc23)C(C)C1 (configuration not stated) + CC(C)NCC(C(=O)N1CCN(c2ncnc3c2C(C)CC3O)CC1)c1ccc(Cl)cc1
219 nM: IC50 [1]
< 31.6 nM: IC50 [2] | IC50 [3] | IC50 [4] | IC50 [5]
inactive: viability, T/C [6] 66.7% | viability, T/C [7] 55.7% | viability, T/C [8] 45.3% | viability, T/C [9] 46.4% | viability, T/C [10] 43.8% | viability, T/C [11] 40.8% | viability, T/C [12] 46.2% | viability, T/C [13] 36.6% | viability, T/C [14] 36.8% | viability, T/C [15] 30.3% | viability, T/C [16] 30.5% | viability, T/C [17] 29.1% | viability, T/C [18] 37.3% | viability, T/C [19] 25.6% | viability, T/C [20] 22.4% | viability, T/C [21] 22.4% | viability, T/C [22] 21.1% | viability, T/C [23] 18.9% | viability, T/C [24] 28.9% | viability, T/C [25] 19.3% | viability, T/C [26] 15.7% | viability, T/C [27] 16.6% | viability, T/C [28] 15% | viability, T/C [29] 15.7% | viability, T/C [30] 15.2% | viability, T/C [31] 14.2% | viability, T/C [32] 14.5% | viability, T/C [33] 13.3% | viability, T/C [34] 12.1% | viability, T/C [35] 11.4%

CC(C)(C)c1cnc(CSc2cnc(NC(=O)C3CCNCC3)s2)o1 + CC(C)NCC(C(=O)N1CCN(c2ncnc3c2C(C)CC3O)CC1)c1ccc(Cl)cc1
45.4 nM: IC50 [3]
inactive: viability, T/C [36] 101% | viability, T/C [37] 103% | viability, T/C [38] 69.1% | viability, T/C [40] 80.3% | viability, T/C [41] 82.2% | viability, T/C [42] 56.9% | viability, T/C [44] 56.2% | viability, T/C [45] 57.9% | viability, T/C [46] 37.6% | viability, T/C [48] 48% | viability, T/C [49] 45.8% | viability, T/C [50] 28.7% | viability, T/C [52] 36.6% | viability, T/C [53] 38% | viability, T/C [54] 15.1%
< 9.49 nM: IC50 [4] | IC50 [5]
131 nM: IC50 [1]
active: viability, T/C [39] 1.04% | viability, T/C (second compound 0.1 µM, first compound 0.949 µM) 0.63% | viability, T/C (second compound 0.1 µM, first compound 3 µM) 0.58% | viability, T/C [43] 0.5% | viability, T/C (second compound 0.316 µM, first compound 0.949 µM) 0.5% | viability, T/C (second compound 0.316 µM, first compound 3 µM) 0.49% | viability, T/C [47] 0.39% | viability, T/C (second compound 1 µM, first compound 0.949 µM) 0.44% | viability, T/C (second compound 1 µM, first compound 3 µM) 0.45% | viability, T/C [51] 0.18% | viability, T/C (second compound 3.16 µM, first compound 0.949 µM) 0.36% | viability, T/C (second compound 3.16 µM, first compound 3 µM) 0.34% | viability, T/C [55] 0.21% | viability, T/C (second compound 10 µM, first compound 0.949 µM) 0.55% | viability, T/C (second compound 10 µM, first compound 3 µM) 0.37%
109 nM: IC50 [2]

Cn1cnc2c(F)c(Nc3ccc(Br)cc3Cl)c(C(=O)NOCCO)cc21
inactive: viability, T/C (compound 0.00949 µM) 94% and 97.4% | viability, T/C (compound 0.03 µM) 86.6% and 73.7% | viability, T/C (compound 0.0949 µM) 85.2% and 77.9% | viability, T/C (compound 0.3 µM) 64.3% and 67.1% | viability, T/C (compound 0.949 µM) 69.9% and 51.7% | viability, T/C (compound 3 µM) 49.4% and 36.6%
> 3000 nM and 1070 nM: IC50 (curve of compound)

Source: PubChem BioAssay AID2060341 (Molecular Pharmacology Branch, DTP, NCI, 2025)
